Measured values: US11874603B2, “Photoresist composition comprising amide compound and pattern formation methods using the same” (Rohm And Haas Electronic Materials Korea Ltd., priority 2021, dated 2024)

Assay: lipophilicity (log P) of the quencher
Format: physicochemical
Details: organic (oil) phase / aqueous phase partition
Source text: Lipophilicity, most commonly referred to as the Log P, represents the ratio at equilibrium of the concentration of a compound between two phases, an oil and a […] phase. The Log P value is a constant defined in the following manner: Log P=log 10 (Partition Coefficient) Partition Coefficient, P=[organic]/[aqueous] where the square bracket parenthesis “[ ]” indicates the concentration of solute in the organic and aqueous partition.

logP | SMILES
10.2 | CCCCCCCCN(CCCCCCCC)C(=O)CCCCCCC [Quencher-B]
6.69 | CCCCCCCCN(CCCCCCCC)C(C)=O [Quencher-I]
5.6 | CCCCCCCCCCCC(=O)N(CC)CC [Quencher-H]
10.8 | CCCCCCCCN(CCCCCCCC)CCCCCCCC [Quencher-A]
